# Values of other authors in patent US20080004295A1, “NOVEL COMPOUNDS” (priority 2005, published 2008).
# Assays:
# [1] = phase II clinical trial, allergic rhinitis
# [2] = system: PGD2; conditions: dosed intranasally, phase I/II study, allergic rhinitis
structure (smiles),measurement,setting,value
Oc1cccc(Nc2ncc(F)c(Nc3cccc(O)c3)n2)c1 [Example R112],efficacy versus placebo,[1],lack of efficacy
same,change in PGD2,[2],statistically significant decrease
same,safety across a range of indicators,[2],safe
